The record followed here is patent US20250282754A1, “BICYCLIC COMPOUNDS AND THEIR USE AS PEST CONTROL AGENTS” (Pl Industries Ltd., priority 2022, published 2025).

Where only a bound is given, the exact number is not on record here.

The first assay concerns Nilaparvata lugens. In words: Nilaparvata lugens seedling dip test (paddy seedlings, third instar nymphs). The format is in vivo. The following applies: dead and moribund third instar nymphs 72 h after release, compared to untreated controls, read-out: percent mortality. The method, then: The seedling dip method was used for testing, wherein the required quantity of the compound was weighed and dissolved in a tube containing a solvent solution. The tube was put on a vortex at 2000 rpm for proper mixing and then diluted with a 0.01% Triton-X solution to the desired test concentration. Paddy seedlings were dipped in the compound solution for 10 seconds, shade dried for 20 min and then the seedlings were placed in glass test tubes with the roots kept in water. 15 third instar nymphs of Nilaparvata lugens were released into each test tube and the tubes were kept in a plant growth chamber at a temperature of 25° C. and relative humidity of 75%. Observations on dead, moribund and alive nymphs were recorded 72 h after the release. Percent mortality was calculated by combining dead and moribund nymphs and comparing the result to the one of the untreated controls. The compounds
As usually defined, the mortality is the share of the test organisms that died. In the case of `CC(C)(C)S(C)(=O)=Nc1ccc2nn(-c3cncnc3)cc2c1` (stereo not shown) [Compound 19], the mortality at 300 ppm is at least 70%.

`CS(=O)(=Nc1cnc2nn(-c3cccnc3)cc2c1)c1cccnc1Cl` (stereo not shown) [Compound 153]: the mortality at 300 ppm was at least 70%.

Take `CCOc1nn(-c2cccc3nn(-c4cccnc4)cc23)c(=O)n1Cc1ccccc1F` [Compound 359, 5-ethoxy-4-(2-fluorobenzyl)-2-(2-(pyridin-3-yl)-2H-indazol-4-yl)-2,4-dihydro-3H-1,2,4-triazol-3-one]: the mortality at 300 ppm is at least 70%.

As for `CS(=O)(=Nc1ccc2nn(-c3cncc(F)c3)cc2c1)c1ccccc1` (stereo not shown) [Compound 14], the mortality at 300 ppm was at least 70%.

`CCN=S(=O)(CC1CCC1)c1ccc2nn(-c3cncc(F)c3)cc2c1` (stereo not shown) [Compound 471, (cyclobutylmethyl)(ethylimino)(2-(5-fluoropyridin-3-yl)-2H-indazol-5-yl)-λ^6-sulfanone]: the mortality at 300 ppm is at least 70%.

As for `CCOc1nn(-c2cccc3nn(-c4cncnc4)cc23)c(=O)n1Cc1ccccc1F` [Compound 360, 5-ethoxy-4-(2-fluorobenzyl)-2-(2-(pyrimidin-5-yl)-2H-indazol-4-yl)-2,4-dihydro-3H-1,2,4-triazol-3-one], the mortality at 300 ppm was at least 70%.

In the case of `CS(=O)(=Nc1cnc2nn(-c3cccnc3)cc2c1)c1ncccc1F` (stereo not shown) [Compound 152], the mortality at 300 ppm is at least 70%.

In the case of `COc1nn(-c2ccc3nn(-c4cccnc4C)cc3c2)c(=O)n1C` [Compound 113, 5-methoxy-4-methyl-2-(2-(2-methylpyridin-3-yl)-2H-indazol-5-yl)-2,4-dihydro-3H-1,2,4-triazol-3-one], the mortality at 300 ppm was at least 70%.

As to `CCOc1nn(-c2cccc3nn(-c4cccnc4)cc23)c(=O)n1Cc1ccc(OC(F)(F)F)cc1` [Compound 331, 5-ethoxy-2-(2-(pyridin-3-yl)-2H-indazol-4-yl)-4-(4-(trifluoromethoxy)benzyl)-2,4-dihydro-3H-1,2,4-triazol-3-one], the mortality at 300 ppm is at least 70%.

Consider `CCS(C)(=O)=Nc1ccc2nn(-c3cncc(F)c3)cc2c1` (stereo not shown) [Compound 5], for which the mortality at 300 ppm is at least 70%.

`CCCCS(=O)(CC)=Nc1ccc2nn(-c3cncc(F)c3)c(Cl)c2c1` (stereo not shown) [Compound 194]: the mortality at 300 ppm is at least 70%.

Consider `CS(C)(=O)=Nc1ccc(Cl)c2nn(-c3cncc(F)c3)cc12` [Compound 202], for which the mortality at 300 ppm was at least 70%.

As for `CCS(=O)(=NC(=O)c1ccc2nn(-c3cccnc3)cc2c1)C(C)C` (stereo not shown) [Compound 105, N-(ethyl(isopropyl)(oxo)-λ^6-sulfaneylidene)-2-(pyridin-3-yl)-2H-indazole-5-carboxamide], the mortality at 300 ppm was at least 70%.

With `Cc1ccc(S(C)(=O)=Nc2ccc3nn(-c4cncc(F)c4)cc3c2)cc1` (stereo not shown) [Compound 51], the mortality at 300 ppm is at least 70%.

Take `COc1nn(-c2ccc3nn(-c4ccc(C)nc4)cc3c2)c(=O)n1C` [Compound 115, 5-methoxy-4-methyl-2-(2-(6-methylpyridin-3-yl)-2H-indazol-5-yl)-2,4-dihydro-3H-1,2,4-triazol-3-one]: the mortality at 300 ppm was at least 70%.

Consider `CS(=O)(=Nc1ccc2nn(-c3cccnc3)cc2c1)c1ccccc1` (stereo not shown) [Compound 21], for which the mortality at 300 ppm was at least 70%.

In the case of `COc1nn(-c2cccc3nn(-c4cccnc4)cc23)c(=O)n1C` [Compound 125, 5-methoxy-4-methyl-2-(2-(pyridin-3-yl)-2H-indazol-4-yl)-2,4-dihydro-3H-1,2,4-triazol-3-one], the mortality at 300 ppm is at least 70%.

In the case of `CS(=O)(Cc1ccccc1)=Nc1ccc2nn(-c3cncnc3)cc2c1` (stereo not shown) [Compound 16], the mortality at 300 ppm is at least 70%.

`COc1nn(-c2ccc3nn(-c4cccnc4)c(Cl)c3c2)c(=O)n1C` [Compound 347, 2-(3-chloro-2-(pyridin-3-yl)-2H-indazol-5-yl)-5-methoxy-4-methyl-2,4-dihydro-3H-1,2,4-triazol-3-one]: the mortality at 300 ppm is at least 70%.

As for `COc1nn(-c2cccc3nn(-c4cncnc4)cc23)c(=O)n1Cc1ccccc1F` [Compound 357, 4-(2-fluorobenzyl)-5-methoxy-2-(2-(pyrimidin-5-yl)-2H-indazol-4-yl)-2,4-dihydro-3H-1,2,4-triazol-3-one], the mortality at 300 ppm was at least 70%.

`N=S(=O)(CC1CC1)c1ccc2nn(-c3cccnc3)c(Cl)c2c1` (stereo not shown) [Compound 454, (3-chloro-2-(pyridin-3-yl)-2H-indazol-5-yl)(cyclopropylmethyl)(imino)-λ^6-sulfanone]: the mortality at 300 ppm was at least 70%.

For `COc1nn(-c2ccc3nn(-c4cccnc4)cc3c2)c(=O)n1C1CC1` [Compound 127, 4-cyclopropyl-5-methoxy-2-(2-(pyridin-3-yl)-2H-indazol-5-yl)-2,4-dihydro-3H-1,2,4-triazol-3-one], the mortality at 300 ppm was at least 70%.

Regarding `Cc1ccc(S(C)(=O)=Nc2ccc3nn(-c4cccnc4)cc3c2)cc1` (stereo not shown) [Compound 23], the mortality at 300 ppm was at least 70%.

In the case of `CCS(=O)(=Nc1ccnc(C)c1)c1ccc2nn(-c3cncc(F)c3)cc2c1` (stereo not shown) [Compound 464], the mortality at 300 ppm is at least 70%.

Consider `COc1nn(-c2cccc3nn(-c4cccnc4)cc23)c(=O)n1Cc1ccccc1F` [Compound 356, 4-(2-fluorobenzyl)-5-methoxy-2-(2-(pyridin-3-yl)-2H-indazol-4-yl)-2,4-dihydro-3H-1,2,4-triazol-3-one], for which the mortality at 300 ppm is at least 70%.

In the case of `CS(C)(=O)=Nc1ccc2nn(-c3cncc(F)c3)cc2c1` [Compound 8], the mortality at 300 ppm was at least 70%.

`COc1nn(-c2ccc3nn(-c4cccnc4)cc3c2)c(=O)n1Cc1ccccc1Cl` [Compound 367, 4-(2-chlorobenzyl)-5-methoxy-2-(2-(pyridin-3-yl)-2H-indazol-5-yl)-2,4-dihydro-3H-1,2,4-triazol-3-one]: the mortality at 300 ppm was at least 70%.

Consider `CC(C)S(=O)(=NC(=O)C(F)(F)F)c1ccc2nn(-c3cccnc3)cc2c1` (stereo not shown) [Compound 394], for which the mortality at 300 ppm is at least 70%.

With `CCCCCS(C)(=O)=Nc1ccc2nn(-c3cccnc3)cc2c1` (stereo not shown) [Compound 27], the mortality at 300 ppm was at least 70%.

Turning to `COc1nn(-c2ccc3nn(-c4cnccc4C)cc3c2)c(=O)n1C` [Compound 114, 5-methoxy-4-methyl-2-(2-(4-methylpyridin-3-yl)-2H-indazol-5-yl)-2,4-dihydro-3H-1,2,4-triazol-3-one], the mortality at 300 ppm is at least 70%.

On to `COc1nn(-c2ccc3nn(-c4cncc(C)c4)cc3c2)c(=O)n1C` [Compound 111, 5-methoxy-4-methyl-2-(2-(5-methylpyridin-3-yl)-2H-indazol-5-yl)-2,4-dihydro-3H-1,2,4-triazol-3-one], for which the mortality at 300 ppm is at least 70%.

In the case of `CC(C)S(=O)(=NC#N)c1ccc2nn(-c3cccnc3)cc2c1` (stereo not shown) [Compound 392, N-(isopropyl(oxo)(2-(pyridin-3-yl)-2H-indazol-5-yl)-λ^6-sulfaneylidene)cyanamide], the mortality at 300 ppm is at least 70%.

Turning to `CS(=O)(Cc1ccccc1)=Nc1ccc2nn(-c3cncc(F)c3)cc2c1` (stereo not shown) [Compound 13], the mortality at 300 ppm is at least 70%.

Take `CC(=O)N=S(=O)(c1cnc2nn(-c3cncc(F)c3)cc2c1)C(C)C` (stereo not shown) [Compound 402]: the mortality at 300 ppm is at least 70%.

For `CC(C)S(C)(=O)=Nc1ccc(Cl)c2nn(-c3cncc(F)c3)cc12` (stereo not shown) [Compound 206], the mortality at 300 ppm was at least 70%.

For `CC(C)S(=O)(=NC(=O)C(F)F)c1ccc2nn(-c3cccnc3)cc2c1` (stereo not shown) [Compound 396], the mortality at 300 ppm was at least 70%.

Take `CCOc1nn(-c2cccc3nn(-c4cccnc4)cc23)c(=O)n1Cc1ccc(F)cc1` [Compound 343, 5-ethoxy-4-(4-fluorobenzyl)-2-(2-(pyridin-3-yl)-2H-indazol-4-yl)-2,4-dihydro-3H-1,2,4-triazol-3-one]: the mortality at 300 ppm is at least 70%.

Take `CCCCCS(C)(=O)=Nc1ccc2nn(-c3cncc(F)c3)cc2c1` (stereo not shown) [Compound 42]: the mortality at 300 ppm was at least 70%.

As for `CS(=O)(=Nc1ccc2nn(-c3cccnc3)cc2c1)c1ccc(Cl)cc1` (stereo not shown) [Compound 26], the mortality at 300 ppm is at least 70%.

Another assay concerns Bemisia tabaci. The assay is described as follows: Bemisia tabaci leaf dip test (brinjal leaves, whitefly adults). The format is in vivo. The following applies: foliar, dead and moribund whitefly adults 72 h after release, compared to untreated controls, read-out: percent mortality. The method, then:
The leaf dip method was used for testing, wherein the required quantity of the compound was weighed and dissolved in a tube containing a solvent solution. The tube was put on a vortex at 2000 rpm for proper mixing and then diluted with a 0.01% Triton-X solution to the desired test concentration. Brinjal leaves were dipped in the compound solution for 10 seconds; shade dried for 20 min and then placed, with the abaxial side of the leaf up, on 4 ml of a solidified 1% agar-agar solution in respective container caps. Known numbers of freshly emerged whitefly adults were collected, using a modified aspirator, and released into a perforated container in which the cap containing the treated leaf was placed. The containers were kept in a plant growth chamber at a temperature of 25° C. and relative humidity of 70%. Observations on dead, moribund and alive adults were recorded 72 h after the release. Percent mortality was calculated by combining dead and moribund adults and comparing the result to the one of the untreated controls. The compounds 1 9 11 18 25 28 29 30 31
For the compound `CC(C)S(=O)(CCC(F)(F)F)=Nc1ccc2nn(-c3cncnc3)cc2c1` (stereo not shown) [Compound 101, isopropyl((2-(pyrimidin-5-yl)-2H-indazol-5-yl)imino)(3,3,3-trifluoropropyl)-λ^6-sulfanone], the mortality at 300 ppm is at least 70%.

In the case of `CC(C)(C)S(C)(=O)=Nc1ccc2nn(-c3cncc(F)c3)cc2n1` (stereo not shown) [Compound 313], the mortality at 300 ppm is at least 70%.

Take `CC(C)S(C)(=O)=Nc1ccc2nn(-c3cncnc3)cc2n1` (stereo not shown) [Compound 213]: the mortality at 300 ppm is at least 70%.

On to `CCS(C)(=O)=Nc1ccc(F)c2nn(-c3cccnc3)cc12` (stereo not shown) [Compound 109], for which the mortality at 300 ppm is at least 70%.

Take `CCS(=O)(CC)=Nc1cc(C(F)(F)F)c2nn(-c3cccnc3)cc2c1` [Compound 296]: the mortality at 300 ppm was at least 70%.

Regarding `CC(=O)N=S(=O)(CC1CCC1)c1ccc2nn(-c3cncnc3)cc2c1` (stereo not shown) [Compound 467], the mortality at 300 ppm is at least 70%.

On to `CCS(=O)(=Nc1ccc2nn(-c3cncnc3)cc2n1)C(C)C` (stereo not shown) [Compound 241], for which the mortality at 300 ppm was at least 70%.
